Measured values: patent US12703729B2, “GIP agonist compounds and methods” (Zealand Pharma A/S, priority 2014, dated 2026)
Starred links: 1 amine or outer side, 2 acyl side, 3 side chain; linkers in the order of their positions; H or OH if unused. Non-standard residues stand in square brackets, D forms with d. Residues, ends and D or L forms follow the SMILES beside them. Groups on a side chain read outwards from the residue. *: point of attachment. C20 diacid = O=C(O)CCCCCCCCCCCCCCCCCCC(=O)*; γGlu = O=C(O)[C@H](CCC(=O)[*:2])N[*:1]; Palmitoyl = CCCCCCCCCCCCCCCC(=O)*; AEEA = NCCOCCOCC(=O)O; Aib = CC(C)(N)C(=O)O

Assays:
[1] = target: T1, human GIP receptor (GIP R) (Homo sapiens, UniProt P48546); experiment: Activity assay at human GIP receptor, cAMP induction (AlphaScreen), Example 3
T1 sequence (P48546 22-466): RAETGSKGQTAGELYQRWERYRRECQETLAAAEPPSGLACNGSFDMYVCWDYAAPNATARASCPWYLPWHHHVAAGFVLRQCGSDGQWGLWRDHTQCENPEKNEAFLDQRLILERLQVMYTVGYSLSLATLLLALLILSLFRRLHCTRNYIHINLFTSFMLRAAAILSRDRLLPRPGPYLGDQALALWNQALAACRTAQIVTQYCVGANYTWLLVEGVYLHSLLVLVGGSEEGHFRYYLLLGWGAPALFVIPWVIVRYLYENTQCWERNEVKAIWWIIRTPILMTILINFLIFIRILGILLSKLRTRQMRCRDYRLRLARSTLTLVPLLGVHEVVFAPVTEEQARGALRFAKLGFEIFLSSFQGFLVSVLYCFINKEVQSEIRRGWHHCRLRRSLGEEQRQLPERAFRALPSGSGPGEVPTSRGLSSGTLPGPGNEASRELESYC

[2] = target: human GLP-1 receptor (GLP-1R) (Homo sapiens, UniProt P43220); experiment: Activity assay at human GLP-1 receptor, cAMP induction (AlphaScreen), Example 3
human GIP R = target: T2, human GIP R (Homo sapiens, UniProt P48546); experiment: cell-based
T2 sequence (P48546 22-466): T1 sequence (P48546 22-466)

Chain of human GLP-1 receptor (GLP-1R) (P43220 24-463): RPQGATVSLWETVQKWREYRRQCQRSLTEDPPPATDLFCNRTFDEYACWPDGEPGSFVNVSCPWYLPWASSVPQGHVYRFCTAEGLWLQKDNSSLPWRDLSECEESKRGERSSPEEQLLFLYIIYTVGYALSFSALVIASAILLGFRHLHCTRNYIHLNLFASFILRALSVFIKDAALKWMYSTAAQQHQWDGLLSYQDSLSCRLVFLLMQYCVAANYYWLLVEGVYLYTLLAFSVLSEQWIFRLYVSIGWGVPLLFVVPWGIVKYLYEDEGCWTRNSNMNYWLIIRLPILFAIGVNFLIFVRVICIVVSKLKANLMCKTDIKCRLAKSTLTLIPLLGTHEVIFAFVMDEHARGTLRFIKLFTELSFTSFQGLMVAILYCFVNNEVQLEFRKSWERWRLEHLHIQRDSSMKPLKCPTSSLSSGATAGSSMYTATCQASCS

SMILES | EC50 [1] [nM] | EC50 [2] [nM] | EC50 (human GIP R) [nM]
CC[C@H](C)[C@H](NC(=O)[C@H](Cc1ccccc1)NC(=O)[C@H](CC(=O)O)NC(=O)[C@H](CCC(N)=O)NC(=O)[C@H](C)NC(=O)[C@H](C)NC(=O)[C@H](CCCCNC(=O)COCCOCCNC(=O)COCCOCCNC(=O)CC[C@H](NC(=O)CCCCCCCCCCCCCCCCCCC(=O)O)C(=O)O)NC(=O)[C@H](CCCCN)NC(=O)[C@H](CC(=O)O)NC(=O)[C@H](CC(C)C)NC(=O)[C@H](CCC(=O)O)NC(=O)[C@@H](NC(=O)[C@H](CO)NC(=O)[C@H](Cc1ccc(O)cc1)NC(=O)[C@H](CC(=O)O)NC(=O)[C@H](CO)NC(=O)[C@@H](NC(=O)[C@H](Cc1ccccc1)NC(=O)[C@@H](NC(=O)CNC(=O)[C@H](CCC(=O)O)NC(=O)C(C)(C)NC(=O)[C@@H](N)Cc1ccc(O)cc1)[C@@H](C)O)[C@@H](C)CC)[C@@H](C)CC)C(=O)N[C@@H](CCC(=O)O)C(=O)N[C@@H](Cc1c[nH]c2ccccc12)C(=O)N[C@@H](CC(C)C)C(=O)N[C@@H](CC(C)C)C(=O)N[C@@H](C)C(=O)NCC(=O)N1CCC[C@H]1C(=O)N[C@@H](CO)C(=O)N[C@@H](CO)C(=O)NCC(=O)N[C@@H](C)C(=O)N1CCC[C@H]1C(=O)N1CCC[C@H]1C(=O)N1CCC[C@H]1C(=O)N[C@@H](CO)C(N)=O [Compound 32] (H-Y[Aib]EGTFISDYSIELDKK([AEEA-AEEA-γGlu-C20 diacid])AAQDFIEWLLAGPSSGAPPPS-NH2) | 0.012 | > 100 | 0.02
CC[C@H](C)[C@H](NC(=O)[C@H](CCCCN)NC(=O)[C@H](CC(=O)O)NC(=O)[C@H](CC(C)C)NC(=O)[C@H](CCC(=O)O)NC(=O)[C@@H](NC(=O)[C@H](CO)NC(=O)[C@H](Cc1ccc(O)cc1)NC(=O)[C@H](CC(=O)O)NC(=O)[C@H](CO)NC(=O)[C@@H](NC(=O)[C@H](Cc1ccccc1)NC(=O)[C@@H](NC(=O)CNC(=O)[C@H](CCC(=O)O)NC(=O)C(C)(C)NC(=O)[C@@H](N)Cc1ccc(O)cc1)[C@@H](C)O)[C@@H](C)CC)[C@@H](C)CC)C(=O)N[C@@H](C)C(=O)N[C@@H](C)C(=O)N[C@@H](CCC(N)=O)C(=O)N[C@@H](CC(=O)O)C(=O)N[C@@H](Cc1ccccc1)C(=O)N[C@H](C(=O)N[C@@H](CCC(=O)O)C(=O)N[C@@H](Cc1c[nH]c2ccccc12)C(=O)N[C@@H](CC(C)C)C(=O)N[C@@H](CC(C)C)C(=O)N[C@@H](C)C(=O)NCC(=O)N1CCC[C@H]1C(=O)N[C@@H](CO)C(=O)N[C@@H](CO)C(=O)NCC(=O)N[C@@H](C)C(=O)N1CCC[C@H]1C(=O)N1CCC[C@H]1C(=O)N1CCC[C@H]1C(=O)N[C@@H](CO)C(=O)N[C@@H](CCCCNC(=O)COCCOCCNC(=O)COCCOCCNC(=O)CC[C@H](NC(=O)CCCCCCCCCCCCCCCCCCC(=O)O)C(=O)O)C(N)=O)C(C)C [Compound 27] (H-Y[Aib]EGTFISDYSIELDKIAAQDFVEWLLAGPSSGAPPPSK([AEEA-AEEA-γGlu-C20 diacid])-NH2) | 0.017 | > 10 | 0.013
CC[C@H](C)[C@H](NC(=O)[C@H](CCCCN)NC(=O)[C@H](CC(=O)O)NC(=O)[C@H](CC(C)C)NC(=O)[C@H](CCC(=O)O)NC(=O)[C@@H](NC(=O)[C@H](CO)NC(=O)[C@H](Cc1ccc(O)cc1)NC(=O)[C@H](CC(=O)O)NC(=O)[C@H](CO)NC(=O)[C@@H](NC(=O)[C@H](Cc1ccccc1)NC(=O)[C@@H](NC(=O)CNC(=O)[C@H](CCC(=O)O)NC(=O)C(C)(C)NC(=O)[C@@H](N)Cc1ccc(O)cc1)[C@@H](C)O)[C@@H](C)CC)[C@@H](C)CC)C(=O)N[C@@H](C)C(=O)N[C@@H](CCC(N)=O)C(=O)N[C@@H](CCCNC(=N)N)C(=O)N[C@@H](C)C(=O)N[C@@H](Cc1ccccc1)C(=O)N[C@H](C(=O)N[C@@H](CCC(=O)O)C(=O)N[C@@H](Cc1c[nH]c2ccccc12)C(=O)N[C@@H](CC(C)C)C(=O)N[C@@H](CC(C)C)C(=O)N[C@@H](C)C(=O)NCC(=O)N1CCC[C@H]1C(=O)N[C@@H](CO)C(=O)N[C@@H](CO)C(=O)NCC(=O)N[C@@H](C)C(=O)N1CCC[C@H]1C(=O)N1CCC[C@H]1C(=O)N1CCC[C@H]1C(=O)N[C@@H](CO)C(=O)N[C@@H](CCCCNC(=O)COCCOCCNC(=O)COCCOCCNC(=O)CC[C@H](NC(=O)CCCCCCCCCCCCCCCCCCC(=O)O)C(=O)O)C(N)=O)[C@@H](C)CC [Compound 23] (H-Y[Aib]EGTFISDYSIELDKIAQRAFIEWLLAGPSSGAPPPSK([AEEA-AEEA-γGlu-C20 diacid])-NH2) | 0.005 | > 10 | 0.01
CC[C@H](C)[C@H](NC(=O)[C@H](CO)NC(=O)[C@H](Cc1ccc(O)cc1)NC(=O)[C@H](CC(=O)O)NC(=O)[C@H](CO)NC(=O)[C@@H](NC(=O)[C@H](Cc1ccccc1)NC(=O)[C@@H](NC(=O)CNC(=O)[C@H](CCC(=O)O)NC(=O)C(C)(C)NC(=O)[C@@H](N)Cc1ccc(O)cc1)[C@@H](C)O)[C@@H](C)CC)C(=O)N[C@@H](CCC(=O)O)C(=O)N[C@@H](CC(C)C)C(=O)N[C@@H](CC(=O)O)C(=O)N[C@@H](CCCCN)C(=O)N[C@@H](CCCCNC(=O)COCCOCCNC(=O)COCCOCCNC(=O)CC[C@H](NC(=O)CCCCCCCCCCCCCCCCCCC(=O)O)C(=O)O)C(=O)N[C@@H](Cc1c[nH]cn1)C(=O)N[C@@H](CCC(N)=O)C(=O)N[C@@H](CCC(N)=O)C(=O)N[C@@H](CC(=O)O)C(=O)N[C@@H](Cc1ccccc1)C(=O)N[C@H](C(=O)N[C@@H](CC(N)=O)C(=O)N[C@@H](Cc1ccc(O)cc1)C(=O)N[C@@H](CC(C)C)C(=O)N[C@@H](CC(C)C)C(=O)N[C@@H](C)C(=O)N[C@@H](CCC(N)=O)C(=O)NCC(=O)N1CCC[C@H]1C(=O)N[C@@H](CO)C(=O)N[C@@H](CO)C(=O)NCC(=O)N[C@@H](C)C(=O)N1CCC[C@H]1C(=O)N1CCC[C@H]1C(=O)N1CCC[C@H]1C(=O)N[C@@H](CO)C(N)=O)C(C)C [Compound 8] (H-Y[Aib]EGTFISDYSIELDKK([AEEA-AEEA-γGlu-C20 diacid])HQQDFVNYLLAQGPSSGAPPPS-NH2) |  | > 10 | 0.009
CC[C@H](C)[C@H](NC(=O)[C@H](CCCCN)NC(=O)[C@H](CC(=O)O)NC(=O)[C@H](CC(C)C)NC(=O)[C@H](CCC(=O)O)NC(=O)[C@@H](NC(=O)[C@H](CO)NC(=O)[C@H](Cc1ccc(O)cc1)NC(=O)[C@H](CC(=O)O)NC(=O)[C@H](CO)NC(=O)[C@@H](NC(=O)[C@H](Cc1ccccc1)NC(=O)[C@@H](NC(=O)CNC(=O)[C@H](CCC(=O)O)NC(=O)C(C)(C)NC(=O)[C@@H](N)Cc1ccc(O)cc1)[C@@H](C)O)[C@@H](C)CC)[C@@H](C)CC)C(=O)N[C@@H](Cc1c[nH]cn1)C(=O)N[C@@H](CCC(N)=O)C(=O)N[C@@H](CCC(N)=O)C(=O)N[C@@H](CC(=O)O)C(=O)N[C@@H](Cc1ccccc1)C(=O)N[C@H](C(=O)N[C@@H](CC(N)=O)C(=O)N[C@@H](Cc1c[nH]c2ccccc12)C(=O)N[C@@H](CC(C)C)C(=O)N[C@@H](CC(C)C)C(=O)N[C@@H](C)C(=O)N[C@@H](CCC(N)=O)C(=O)NCC(=O)N1CCC[C@H]1C(=O)N[C@@H](CO)C(=O)N[C@@H](CO)C(=O)NCC(=O)N[C@@H](C)C(=O)N1CCC[C@H]1C(=O)N1CCC[C@H]1C(=O)N1CCC[C@H]1C(=O)N[C@@H](CO)C(=O)N[C@@H](CCCCNC(=O)COCCOCCNC(=O)COCCOCCNC(=O)CC[C@H](NC(=O)CCCCCCCCCCCCCCCCCCC(=O)O)C(=O)O)C(N)=O)C(C)C [Compound 4] (H-Y[Aib]EGTFISDYSIELDKIHQQDFVNWLLAQGPSSGAPPPSK([AEEA-AEEA-γGlu-C20 diacid])-NH2) | 0.014 |  | 0.013
CCCCCCCCCCCCCCCC(=O)N[C@@H](CCC(=O)NCCCC[C@H](NC(=O)[C@H](CO)NC(=O)[C@@H]1CCCN1C(=O)[C@@H]1CCCN1C(=O)[C@@H]1CCCN1C(=O)[C@H](C)NC(=O)CNC(=O)[C@H](CO)NC(=O)[C@H](CO)NC(=O)[C@@H]1CCCN1C(=O)CNC(=O)[C@H](CCC(N)=O)NC(=O)[C@H](C)NC(=O)[C@H](CC(C)C)NC(=O)[C@H](CC(C)C)NC(=O)[C@H](Cc1c[nH]c2ccccc12)NC(=O)[C@H](CC(N)=O)NC(=O)[C@@H](NC(=O)[C@H](Cc1ccccc1)NC(=O)[C@H](CC(=O)O)NC(=O)[C@H](CCC(N)=O)NC(=O)[C@H](CCC(N)=O)NC(=O)[C@H](Cc1c[nH]cn1)NC(=O)[C@@H](NC(=O)[C@H](CCCCN)NC(=O)[C@H](CC(=O)O)NC(=O)[C@H](CC(C)C)NC(=O)[C@H](CCC(=O)O)NC(=O)[C@@H](NC(=O)[C@H](CO)NC(=O)[C@H](Cc1ccc(O)cc1)NC(=O)[C@H](CC(=O)O)NC(=O)[C@H](CO)NC(=O)[C@@H](NC(=O)[C@H](Cc1ccccc1)NC(=O)[C@@H](NC(=O)CNC(=O)[C@H](CCC(=O)O)NC(=O)C(C)(C)NC(=O)[C@@H](N)Cc1ccc(O)cc1)[C@@H](C)O)[C@@H](C)CC)[C@@H](C)CC)[C@@H](C)CC)C(C)C)C(N)=O)C(=O)O [Compound 5] (H-Y[Aib]EGTFISDYSIELDKIHQQDFVNWLLAQGPSSGAPPPSK([γGlu-Palmitoyl])-NH2) | 0.014 |  | 0.014
